Experimental findings from patent EP0609289B1, “IMIDAZOLE DERIVATIVES AND PHARMACEUTICAL COMPOSITIONS CONTAINING THE SAME” (THE UPJOHN COMPANY, priority 1991, dated 1993) are described below.

The target in one experiment is Angiotensin II receptor. Briefly: In vitro angiotensin II mesenteric artery receptor binding assay (test 1). The conditions noted are these: rat mesenteric artery membrane fraction, 0.2 nM 125I-Ang II, 22°C, 90 minutes. The procedure: I) In vitro angiotensin II mesenteric artery receptor binding assay
According to the method (1) by Gunther et al., a membrane fraction was prepared from mesenteric artery of male rat, […] protein equivalent of it and 0.2 nM ^125I-Ang II as well as various concentrations of test compounds were incubated at 22°C for 90 minutes in an incubation buffer (50 mM Tris-HCl, 120 mM NaCl, 5 mM MgCl2. 0.25% bovine serum albumin, pH 7.2) (reaction volume; 200 µl). The incubated was cooled, and the reaction was stopped by addition of ice-cooled phosphate buffer (10 mM phosphate, 140 mM NaCI, pH 7.4, hereinafter referred to as PBS), and then the reaction solution was filtered through a glass fiber filter (Whatman CF/B), the filter was washed, dried, and then the radioactivity of captured ^125I-angiotensin II which bound to the receptor was measured by a γ-counter. Non-specific bound amount was obtained from the reaction in the presence of 1 µM of unlabeled angiotensin II. […] Res., 17:278-286, 1980].

Experiment [1] concerns blood pressure increase by angiotensin II. The experiment can be described thus: Antagonism to blood pressure increase by angiotensin II in a spine destroyed (pithed) rat (test 4). Type of experiment: in vivo, Wistar rat. The following applies: intravenous administration, 3µg/kg angiotensin II, read-out: Inhibition of blood pressure increase by angiotensin II in pithed rat ED50(mg/kg) (test 4). The text has this:
4) Antagonism to blood pressure increasing by angiotensin II in a spine destroyed rat
Wistar rat anaesthetized with pentobarbital was fixed at dorsal position, and a cannula for measuring blood pressure was inserted into sinister arteria carotis communis, and a cannula for administration of the test compound into dexter external jugular vein and a cannula for administration of angiotensin II into sinister external jugular vein, ambilateral nervus vagus was cut, and artificial respiration was carried out. A thin bar made of metal was stabbed into spinal column through sinister orbita to destroy spine. Blood pressure was recorded on polygraph via pressure transducer from an arterial cannula. After blood pressure was stable for more than 30 min., 3µg/kg of angiotensin II was administered intravenously four times every 15 min, and every 5 min. before the administration of angiotensin II from the second administration onward, a solvent, a lower dose of the test compound, and a higher dose of the test compound were administered intravenously in this order to observe the blood pressure increasing response by angiotensin II. ED50 values were calculated from the inhibiting rate when the first blood pressure increase by angiotensin II was regarded as 100 %.

The test system of experiment [2] is angiotensin II constriction in an isolated rabbit thoracic aorta. The experiment can be described thus: Antagonism to angiotensin II constriction in an isolated rabbit thoracic aorta (test 3). The conditions noted are these: test compound 10^-6 M for 20 minutes. The procedure:
3) Antagonism to angiotensin II constriction in an isolated rabbit thoracic aorta
A rectangular strip-like sample of thoracic aorta isolated from an anaesthetized rabbit was prepared, and the sample was suspended at 2.0 g of loaded tension in a Magnus tube filled with Krebs-Henseleitoid nutrition solution which was well aerated with 95% O2-5% CO2, and the constriction tension was measured using an isometric transducer. After the tension of the sample at rest became stable, accumulative administration of angiotensin II was carried out to obtain a concentration-action curve. Thereafter, the sample was washed with the same nutrition solution, then treated with test compound (10^-6 M) for 20 minutes to obtain again a concentration-action curve of angiotensin II. The results were obtained as followed: generated maximum tension at the first accumulative administration of angiotensin II was regarded as 100 %, and the 50 % effective concentration (ED50) was obtained in the presence or absence of the test compound, and pA2 value was calculated according to the following equations: • pA2=-logKB KB=C/{(A'/A)-1} • C; concentration of the test compound (M) • A'; ED50 in the presence of test compound (M) • A; ED50 in the absence of the test compound (M)

Usually IC50 stands for the point on the concentration scale where inhibition reaches its midpoint. Read a low IC50 as greater potency. As for `CCCc1nc2c(=O)n3n(c(=O)c2n1Cc1ccc(-c2ccccc2-c2nn[nH]n2)cc1)C(C(=O)OCC)CCC3C` (stereo not drawn) [Compound No. 138, ethyl 4,9-dioxo-5-methyl-2-n-propyl-5,6,7,8-tetrahydro-1-[(2'-(1H-tetrazol-5-yl)biphenyl-4-yl)methyl]-1H-1,3,4a,8a-tetraza-cyclopentanaphthalene-8-carboxylate], on Angiotensin II receptor, the IC50 is 4 nM. Further, the ED50 in experiment [1] came out at 0.096 mg/kg.
`CCCCc1nc2c(=O)n3n(c(=O)c2n1Cc1ccc(-c2ccccc2-c2nnn[nH]2)cc1)C(C)CCC3C(=O)NC(C)(C)C` (stereo not drawn) [Compound No. 208, 2-n-butyl-4,9-dioxo-8-methyl-5,6,7,8-tetrahydro-1-[{2'-(1H-tetrazol-5-yl)biphenyl-4-yl}methyl]-1H-1,3,4a,8a-tetraza-cyclopentanaphthalene-5-carboxy-N-t-butylamide] yielded an IC50 at Angiotensin II receptor of 8.2 nM. In addition, the ED50 in experiment [1] amounted to 0.12 mg/kg.
At Angiotensin II receptor, `CCCCc1nc2c(=O)n3n(c(=O)c2n1Cc1ccc(-c2ccccc2-c2nn[nH]n2)cc1)C(C)CCC3C(=O)OCC` (stereo not drawn) [compound 169, ethyl 2-n-butyl-4,9-dioxo-8-methyl-5,6,7,8-tetrahydro-1-[{2'-(1H-tetrazol-5-yl)biphenyl-4-yl}methyl]-1H-1,3,4a,8a-tetraza-cyclopentanaphthalene-5-carboxylate] registered an IC50 of 1.3 nM. In addition, the “Inhibition of rabbit aorta constriction pA2 (test 3)” value (from here on “Inhibition”) in experiment [2] is listed as 10.19.
Regarding `CCCc1nc2c(n1Cc1ccc(-c3ccccc3-c3nn[nH]n3)cc1)C(=O)N1CCCCN1C2` [Compound No. 366, 2-n-propyl-5,6,7,8-tetrahydro-1-[{2'-(1H-tetrazol-5-yl)biphenyl-4-yl}methyl]-1H,4H-1,3,4a,8a-tetraza-cyclopentanaphthalene-9-one], the IC50 at Angiotensin II receptor came to 32 nM. Besides, the “Inhibition” value in experiment [2] was 9.32.
With `CCCCc1nc2c(=O)n3n(c(=O)c2n1Cc1ccc(-c2ccccc2-c2nnn[nH]2)cc1)C1(CO)CCC3CC1` [Compound No. 222, 2-n-butyl-5,8-ethano-8-hydroxymethyl-5,6,7,8-tetrahydro-1-[{2'-(1H-tetrazol-5-yl)biphenyl-4-yl}methyl]-1H-1,3,4a,8a-tetraza-cyclopentanaphthalene-4,9-dione], the IC50 on Angiotensin II receptor was determined as 3 nM. In addition, the ED50 in experiment [1] is 0.56 mg/kg.
In the case of `CCCc1nc2c(n1Cc1ccc(-c3ccccc3-c3nn[nH]n3)cc1)C(=O)N1C3CCC(CC3)N1C2` [Compound No. 438, 5,8-ethano-2-n-propyl-5,6,7,8-tetrahydro-1-[{2'-(1H-tetrazol-5-yl)biphenyl-4-yl}methyl],1H,4H-1,3,4a,8a-tetraza-cyclopentanaphthalene-9-one], the IC50 at Angiotensin II receptor came to 7.5 nM. Further, the “Inhibition” value in experiment [2] was 8.57. Besides, in experiment [1], the ED50 stood at 0.37 mg/kg.
At Angiotensin II receptor, `CCCCc1nc2c(=O)n3n(c(=O)c2n1Cc1ccc(-c2ccccc2-c2nn[nH]n2)cc1)C1CCC3(C(=O)NC(C)(C)C)CC1` [Compound No. 236, 2-n-butyl-4,9-dioxo-5,8-ethano-5,6,7,8-tetrahydro-1-[{2'-(1H-tetrazol-5-yl)biphenyl-4-yl}methyl]-1H-1,3,4a,8a-tetraza-cyclopentanaphthalene-5-carboxy-N-t-butylamide] yielded a concentration for half-maximal inhibition (IC50) of 32 nM. In addition, the ED50 in experiment [1] was 0.11 mg/kg.
On to `CCCc1nc2c(=O)n3n(c(=O)c2n1Cc1ccc(-c2ccccc2-c2nnn[nH]2)cc1)C1CCC3(C(=O)N(CC)CC)CC1` [Compound No. 231, 4,9-dioxo-5,8-ethano-2-n-propyl-5,6,7,8-tetrahydro-1-[{2'-(1H-tetrazol-5-yl)biphenyl-4-yl}methyl]-1H-1,3,4a,8a-tetraza-cyclopentanaphthalene-5-carboxy-N,N-diethylamide], for which the IC50 at Angiotensin II receptor came out at 9.8 nM. In experiment [1], the ED50 stood at 0.074 mg/kg.
For `CCCCc1nc2c(=O)n3n(c(=O)c2n1Cc1ccc(-c2ccccc2-c2nn[nH]n2)cc1)CC(C)=C(C)C3` [compound 68, 2-n-butyl-5,8-dihydro-6,7-dimethyl-1-[(2'-(1H-tetrazol-5-yl)biphenyl-4-yl)methyl]-1H-1,3,4a,8a-tetraza-cyclopentanaphthalene-4,9-dione], the IC50 at Angiotensin II receptor was 8.1 nM. In addition, the ED50 in experiment [1] worked out at 0.56 mg/kg.
On Angiotensin II receptor, `CCCc1nc2c(=O)n3n(c(=O)c2n1Cc1ccc(-c2ccccc2-c2nnn[nH]2)cc1)C1CCC3(COCC(=O)OC(C)(C)C)CC1` [Compound No. 223, 5-t-butoxycarboxylmethoxymethyl-5,8-ethano-2-n-propyl-5,6,7,8-tetrahydro-1-[{2'-(1H-tetrazol-5-yl)biphenyl-4-yl}methyl]-1H-1,3,4a,8a-tetraza-cyclopentanaphthalene-4,9-dione] displayed a 50% inhibitory concentration (IC50) of 9.8 nM. Moreover, in experiment [2], the “Inhibition” value was determined as 9.68. The ED50 in experiment [1] was determined as 0.1 mg/kg.
At Angiotensin II receptor, `CCCc1nc2c(n1Cc1ccc(-c3ccccc3-c3nn[nH]n3)cc1)C(=O)N1C(C)CCC(C)N1C2` (stereo not drawn) [Compound No. 430, 5,8-dimethyl-2-n-propyl-5,6,7,8-tetrahydro-1-[{2'-(1H-tetrazol-5-yl)biphenyl-4-yl}methyl]-1H,4H-1,3,4a,8a-tetraza-cyclopentanaphthalene-9-one] displayed an IC50 of 3.9 nM. The “Inhibition” value in experiment [2] is given as 10.04.
Compound `CCCc1nc2c(=O)n3n(c(=O)c2n1Cc1ccc(-c2ccccc2-c2nn[nH]n2)cc1)CC(C)C(C)C3` (stereo not drawn) [Compound No. 50, 6,7-dimethyl-2-n-propyl-5,6,7,8-tetrahydro-1-[(2'-(1H-tetrazol-5-yl)biphenyl-4-yl)methyl]-1H-1,3,4a,8a-tetraza-cyclopentanaphthalene-4,9-dione] displayed a 50% inhibitory concentration (IC50) at Angiotensin II receptor of 5.3 nM. The ED50 in experiment [1] stood at 0.2 mg/kg.
In the case of `CCCCc1nc2c(=O)n3n(c(=O)c2n1Cc1ccc(-c2ccccc2-c2nn[nH]n2)cc1)C1C=CC3CC1` (stereo not drawn) [compound 106, 2-n-butyl-5,8-dihydro-5,8-ethano-1-[(2'-(1H-tetrazol-5-yl)biphenyl-4-yl)methyl]-1H-1,3,4a,8a-tetraza-cyclopentanaphthalene-4,9-dione], the concentration for half-maximal inhibition (IC50) at Angiotensin II receptor amounted to 3.8 nM. Moreover, in experiment [2], the “Inhibition” value was 9.2.
On to `CCCc1nc2c(=O)n3n(c(=O)c2n1Cc1ccc(-c2ccccc2-c2nn[nH]n2)cc1)CCCC3` [Compound No. 46, 2-n-propyl-5,6,7,8-tetrahydro-1-[(2'-(1H-tetrazol-5-yl)biphenyl-4-yl)methyl]-1H-1,3,4a,8a-tetraza-cyclopentanaphthalene-4,9-dione], for which the IC50 at Angiotensin II receptor amounted to 3.3 nM. For the same compound, the “Inhibition” value in experiment [2] was found to be 8.95.
`CCCc1nc2c(=O)n3n(c(=O)c2n1Cc1ccc(-c2ccccc2-c2nn[nH]n2)cc1)C(C)CCC3C(=O)N(CC)CC` (stereo not drawn) [Compound No. 203, 4,9-dioxo-8-methyl-2-n-propyl-5,6,7,8-tetrahydro-1-[{2'-(1H-tetrazol-5-yl)biphenyl-4-yl}methyl]-1H-1,3,4a,8a-tetraza-cyclopentanaphthalene-5-carboxy-N,N-diethylamide] had a concentration for half-maximal inhibition (IC50) at Angiotensin II receptor of 1.9 nM. For the same compound, the “Inhibition” value in experiment [2] stood at 10.0.
On Angiotensin II receptor, `CCCCc1nc2c(=O)n3n(c(=O)c2n1Cc1ccc(-c2ccccc2-c2nn[nH]n2)cc1)C1CCC3(C(=O)OCC)CC1` [Compound No. 196, ethyl 2-n-butyl-4,9-dioxo-5,8-ethano-5,6,7,8-tetrahydro-1-[{2'-(1H-tetrazol-5-yl)biphenyl-4-yl}methyl]-1H-1,3,4a,8a-tetraza-cyclopentanaphthalene-5-carboxylate] displayed an IC50 of 4.6 nM. Besides, in experiment [1], the ED50 came to 0.23 mg/kg.
Turning to `CCCCc1nc2c(=O)n3n(c(=O)c2n1Cc1ccc(-c2ccccc2-c2nn[nH]n2)cc1)CC=CC3` [Compound No. 71, 2-n-butyl-5,8-dihydro-1-[(2'-(1H-tetrazol-5-yl)biphenyl-4-yl)methyl]-1H-1,3,4a,8a-tetraza-cyclopentanaphthalene-4,9-dione], on Angiotensin II receptor, the half-maximal inhibitory concentration (IC50) worked out at 7 nM. In addition, the “Inhibition” value in experiment [2] amounted to 9.09.
